The supplement of paper PMC10307832

Legend:
Assay in all cases: relative viability (nuclei count vs DMSO), 5 days (fraction); higher = more cells survive
[1] = compound: CC1=CN=C(N=C1C2=CNC(=C2)C(=O)N[C@H](CO)C3=CC(=CC=C3)Cl)NC4=C(C=C(C=C4)F)Cl [VX-11e]
Summary of the method: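 A plate was accepted only when its control CV was below 25% and the cells had doubled at least once. Viability is defined from nuclear counts as treated wells divided by vehicle wells, with the median taken across plates. That median covers lung cancer cell lines grown in 1536-well plates, dosed by pinning at five √10-spaced library-drug concentrations, and counted in MetaXpress from 4× Hoechst images after 5 days.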

[2] = compound: CC1=CN=C(N=C1C2=CNC(=C2)C(=O)N[C@H](CO)C3=CC(=CC=C3)Cl)NC4=C(C=C(C=C4)F)Cl [VX-11e] + Cc1cc(Nc2cc(N3CCN(C)CC3)nc(Sc3ccc(NC(=O)C4CC4)cc3)n2)n[nH]1 [Tozasertib] (partner 0.1 µM)
Summary of the method: (§1)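 Relative viability equals treated-well nuclei counts divided by vehicle-well nuclei counts. Counts came from 4× images of lung cancer cell lines grown in 1536-well plates for 5 days after pin-tool dosing on the day after seeding. Dosing used one drug alone or a fixed anchor-drug dose plus five library-drug doses (not always all listed) in √10 steps, and values are medians of duplicate plates.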

[3] = compound: CC1=CN=C(N=C1C2=CNC(=C2)C(=O)N[C@H](CO)C3=CC(=CC=C3)Cl)NC4=C(C=C(C=C4)F)Cl [VX-11e] + COc1cc2c(Oc3ccc(NC(=O)C4(C(=O)Nc5ccc(F)cc5)CC4)cc3F)ccnc2cc1OCCCN1CCOCC1 [Foretinib] (partner 0.25 µM)
Summary of the method: as §1

[4] = compound: CC1=CN=C(N=C1C2=CNC(=C2)C(=O)N[C@H](CO)C3=CC(=CC=C3)Cl)NC4=C(C=C(C=C4)F)Cl [VX-11e] + Cc1nc(Nc2ncc(C(=O)Nc3c(C)cccc3Cl)s2)cc(N2CCN(CCO)CC2)n1 [Dasatinib] (partner 0.075 µM)
Summary of the method: as §1

[5] = compound: CC1=CN=C(N=C1C2=CNC(=C2)C(=O)N[C@H](CO)C3=CC(=CC=C3)Cl)NC4=C(C=C(C=C4)F)Cl [VX-11e] + CCNC(=O)c1noc(-c2cc(C(C)C)c(O)cc2O)c1-c1ccc(CN2CCOCC2)cc1 [Luminespib] (partner 0.01 µM)
Summary of the method: as §1

[6] = compound: CC1=CN=C(N=C1C2=CNC(=C2)C(=O)N[C@H](CO)C3=CC(=CC=C3)Cl)NC4=C(C=C(C=C4)F)Cl [VX-11e] + COc1cccc2cc(-c3nc([C@H]4CC[C@H](C(=O)O)CC4)n4ncnc(N)c34)[nH]c12 [OSI-027] (partner 0.5 µM)
Summary of the method: as §1

[7] = compound: CC1=CN=C(N=C1C2=CNC(=C2)C(=O)N[C@H](CO)C3=CC(=CC=C3)Cl)NC4=C(C=C(C=C4)F)Cl [VX-11e] + N=C(N)NC(=N)NCCc1ccccc1 [Phenformin] (partner 250 µM)
Summary of the method: as §1

[8] = compound: CC1=CN=C(N=C1C2=CNC(=C2)C(=O)N[C@H](CO)C3=CC(=CC=C3)Cl)NC4=C(C=C(C=C4)F)Cl [VX-11e] + C[C@@H](Oc1cc(-c2cnn(C3CCNCC3)c2)cnc1N)c1c(Cl)ccc(F)c1Cl [Crizotinib] (partner 1 µM)
Summary of the method: as §1

[9] = compound: CC1=CN=C(N=C1C2=CNC(=C2)C(=O)N[C@H](CO)C3=CC(=CC=C3)Cl)NC4=C(C=C(C=C4)F)Cl [VX-11e] + CS(=O)(=O)N1CCN(Cc2cc3nc(-c4cccc5[nH]ncc45)nc(N4CCOCC4)c3s2)CC1 [Pictilisib] (partner 1 µM)
Summary of the method: as §1

[10] = compound: CC1=CN=C(N=C1C2=CNC(=C2)C(=O)N[C@H](CO)C3=CC(=CC=C3)Cl)NC4=C(C=C(C=C4)F)Cl [VX-11e] + Cc1nc(NC(=O)N2CCC[C@H]2C(N)=O)sc1-c1ccnc(C(C)(C)C(F)(F)F)c1 [Alpelisib] (partner 2 µM)
Summary of the method: as §1

[11] = compound: CC1=CN=C(N=C1C2=CNC(=C2)C(=O)N[C@H](CO)C3=CC(=CC=C3)Cl)NC4=C(C=C(C=C4)F)Cl [VX-11e] + C[C@]1(O)C[C@@H](c2nc(-c3ccc4ccc(-c5ccccc5)nc4c3)c3c(N)nccn32)C1 [Linsitinib] (partner 1 µM)
Summary of the method: as §1

[12] = compound: CC1=CN=C(N=C1C2=CNC(=C2)C(=O)N[C@H](CO)C3=CC(=CC=C3)Cl)NC4=C(C=C(C=C4)F)Cl [VX-11e] + CC(C)C[C@H](NC(=O)[C@H](Cc1ccccc1)NC(=O)c1cnccn1)B(O)O [Bortezomib] (partner 0.002 µM)
Summary of the method: as §1

[13] = compound: CC1=CN=C(N=C1C2=CNC(=C2)C(=O)N[C@H](CO)C3=CC(=CC=C3)Cl)NC4=C(C=C(C=C4)F)Cl [VX-11e] + Nc1nc2[nH]cc(CCc3ccc(C(=O)N[C@@H](CCC(=O)O)C(=O)O)cc3)c2c(=O)[nH]1 [Pemetrexed] (partner 0.2 µM)
Summary of the method: as §1

[14] = compound: CC1=CN=C(N=C1C2=CNC(=C2)C(=O)N[C@H](CO)C3=CC(=CC=C3)Cl)NC4=C(C=C(C=C4)F)Cl [VX-11e] + CS(=O)(=O)CCNCc1ccc(-c2ccc3ncnc(Nc4ccc(OCc5cccc(F)c5)c(Cl)c4)c3c2)o1 [Lapatinib] (partner 2 µM)
Summary of the method: as §1

## NCI-H1623
[1]; 0.04 µM
  relative viability: 0.967
[1]; 0.1265 µM
  relative viability: 1.04
[1]; 0.4 µM
  relative viability: 0.724
[1]; 1.265 µM
  relative viability: 0.678
[1]; 4 µM
  relative viability: 0.561
[2]; first compound 0.04 µM
  relative viability: 0.396
[2]; first compound 0.1265 µM
  relative viability: 0.426
[2]; first compound 0.4 µM
  relative viability: 0.418
[2]; first compound 1.265 µM
  relative viability: 0.38
[2]; first compound 4 µM
  relative viability: 0.23
[3]; first compound 0.04 µM
  relative viability: 0.856
[3]; first compound 0.1265 µM
  relative viability: 0.934
[3]; first compound 0.4 µM
  relative viability: 0.588
[3]; first compound 1.265 µM
  relative viability: 0.619
[3]; first compound 4 µM
  relative viability: 0.473
[4]; first compound 0.04 µM
  relative viability: 0.526
[4]; first compound 0.1265 µM
  relative viability: 0.624
[4]; first compound 0.4 µM
  relative viability: 0.369
[4]; first compound 1.265 µM
  relative viability: 0.457
[4]; first compound 4 µM
  relative viability: 0.398
[5]; first compound 0.04 µM
  relative viability: 0.434
[5]; first compound 0.1265 µM
  relative viability: 0.492
[5]; first compound 0.4 µM
  relative viability: 0.3
[5]; first compound 1.265 µM
  relative viability: 0.48
[5]; first compound 4 µM
  relative viability: 0.337
[6]; first compound 0.04 µM
  relative viability: 0.43
[6]; first compound 0.1265 µM
  relative viability: 0.446
[6]; first compound 0.4 µM
  relative viability: 0.423
[6]; first compound 1.265 µM
  relative viability: 0.307
[6]; first compound 4 µM
  relative viability: 0.278
[7]; first compound 0.04 µM
  relative viability: 0.53
[7]; first compound 0.1265 µM
  relative viability: 0.623
[7]; first compound 0.4 µM
  relative viability: 0.433
[7]; first compound 1.265 µM
  relative viability: 0.546
[7]; first compound 4 µM
  relative viability: 0.409

## NCI-H1563
[1]; 0.04 µM
  relative viability: 0.983
[1]; 0.1265 µM
  relative viability: 0.916
[1]; 0.4 µM
  relative viability: 0.908
[1]; 1.265 µM
  relative viability: 0.944
[1]; 4 µM
  relative viability: 0.82
[3]; first compound 0.04 µM
  relative viability: 1.02
[3]; first compound 0.1265 µM
  relative viability: 0.832
[3]; first compound 0.4 µM
  relative viability: 0.862
[3]; first compound 1.265 µM
  relative viability: 0.922
[3]; first compound 4 µM
  relative viability: 0.763
[8]; first compound 0.04 µM
  relative viability: 0.861
[8]; first compound 0.1265 µM
  relative viability: 0.799
[8]; first compound 0.4 µM
  relative viability: 0.969
[8]; first compound 1.265 µM
  relative viability: 0.91
[8]; first compound 4 µM
  relative viability: 0.642
[4]; first compound 0.04 µM
  relative viability: 0.417
[4]; first compound 0.1265 µM
  relative viability: 0.47
[4]; first compound 0.4 µM
  relative viability: 0.506
[4]; first compound 1.265 µM
  relative viability: 0.411
[4]; first compound 4 µM
  relative viability: 0.449
[9]; first compound 0.04 µM
  relative viability: 0.662
[9]; first compound 0.1265 µM
  relative viability: 0.538
[9]; first compound 0.4 µM
  relative viability: 0.559
[9]; first compound 1.265 µM
  relative viability: 0.656
[9]; first compound 4 µM
  relative viability: 0.625
[10]; first compound 0.04 µM
  relative viability: 0.86
[10]; first compound 0.1265 µM
  relative viability: 0.84
[10]; first compound 0.4 µM
  relative viability: 0.897
[10]; first compound 1.265 µM
  relative viability: 0.917
[10]; first compound 4 µM
  relative viability: 0.874
[5]; first compound 0.04 µM
  relative viability: 0.522
[5]; first compound 0.1265 µM
  relative viability: 0.555
[5]; first compound 0.4 µM
  relative viability: 0.488
[5]; first compound 1.265 µM
  relative viability: 0.508
[5]; first compound 4 µM
  relative viability: 0.465
[11]; first compound 0.04 µM
  relative viability: 1.21
[11]; first compound 0.1265 µM
  relative viability: 1.2
[11]; first compound 0.4 µM
  relative viability: 1.22
[11]; first compound 1.265 µM
  relative viability: 1.11
[11]; first compound 4 µM
  relative viability: 1.06
[12]; first compound 0.04 µM
  relative viability: 0.884
[12]; first compound 0.1265 µM
  relative viability: 0.734
[12]; first compound 0.4 µM
  relative viability: 0.637
[12]; first compound 1.265 µM
  relative viability: 0.739
[12]; first compound 4 µM
  relative viability: 0.747
[13]; first compound 0.04 µM
  relative viability: 0.766
[13]; first compound 0.1265 µM
  relative viability: 0.798
[13]; first compound 0.4 µM
  relative viability: 0.915
[13]; first compound 1.265 µM
  relative viability: 0.631
[13]; first compound 4 µM
  relative viability: 0.655
[6]; first compound 0.04 µM
  relative viability: 0.729
[6]; first compound 0.1265 µM
  relative viability: 0.697
[6]; first compound 0.4 µM
  relative viability: 0.705
[6]; first compound 1.265 µM
  relative viability: 0.822
[6]; first compound 4 µM
  relative viability: 0.789
[14]; first compound 0.04 µM
  relative viability: 0.938
[14]; first compound 0.1265 µM
  relative viability: 0.795
[14]; first compound 0.4 µM
  relative viability: 0.529
[14]; first compound 1.265 µM
  relative viability: 0.854
[14]; first compound 4 µM
  relative viability: 0.864
[7]; first compound 0.04 µM
  relative viability: 0.647
[7]; first compound 0.1265 µM
  relative viability: 0.607
[7]; first compound 0.4 µM
  relative viability: 0.549
[7]; first compound 1.265 µM
  relative viability: 0.713
[7]; first compound 4 µM
  relative viability: 0.806
